Data published in patent US20240025893A1, “PYRIMIDINE-AND NITROGEN-CONTAINING BICYCLIC COMPOUND” (Asahi Kasei Pharma Corporation, priority 2020, published 2024).

Assays:
[1] = target: human IRAK-4 (Homo sapiens (Human), UniProt Q9NWZ3); test: Measurement of human IRAK-4 inhibitory activity (TR-FRET, peptide substrate phosphorylation, 10 μM ATP); format: biochemical; conditions: 1 nM IRAK-4, 10 μM ATP, 23° C., 30 minutes; average values
In short: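 With 1 nM IRAK-4, 0.5 μM biotinylated peptide and 10 μM ATP, compound incubated 30 min at 23 °C in 50 mM HEPES pH 7.2 with Mg2+/Mn2+. Stopped with EDTA plus europium-cryptate anti-phosphopeptide antibody and streptavidin-XL665, 60 min at 23 °C. Activity taken as the 665/620 nm TR-FRET ratio.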

[2] = test system: LPS-stimulated TNFα production in THP-1 cells; test: LPS-stimulated TNFα production inhibition test using human acute monocytic leukemia cell strain THP-1; format: cell-based; conditions: Homo sapiens, THP-1, 4 h, LPS 2.5 ng/mL, average values
In short: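 Readout was HTRF-measured TNFα in supernatants, calibrated against a standard curve, after LPS challenge (2.5 ng/mL final, 4 h) of THP-1 cells pretreated 1 h at 37 °C with compound. Unstimulated wells defined 100% suppression and vehicle wells 0%. IC50 was fitted with a 4-parameter logistic model.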

Sequence of human IRAK-4 (Q9NWZ3 whole entry): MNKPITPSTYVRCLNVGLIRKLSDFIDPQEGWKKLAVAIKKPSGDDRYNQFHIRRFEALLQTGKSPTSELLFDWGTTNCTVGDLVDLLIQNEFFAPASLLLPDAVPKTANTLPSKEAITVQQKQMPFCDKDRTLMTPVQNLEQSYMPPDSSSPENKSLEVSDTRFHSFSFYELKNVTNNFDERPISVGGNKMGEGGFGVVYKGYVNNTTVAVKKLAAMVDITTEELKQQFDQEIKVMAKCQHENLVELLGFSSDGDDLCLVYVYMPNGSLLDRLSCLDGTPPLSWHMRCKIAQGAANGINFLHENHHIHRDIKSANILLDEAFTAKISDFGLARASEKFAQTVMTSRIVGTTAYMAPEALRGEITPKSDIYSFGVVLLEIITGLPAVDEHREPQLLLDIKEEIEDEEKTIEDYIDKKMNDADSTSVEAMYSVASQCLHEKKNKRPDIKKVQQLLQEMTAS

Compound | IC50 [1] | IC50 [2]
COc1c(-c2cnc(CO[C@H]3CCC[C@@H]3O)nc2)ccc2nc(NC(=O)C3CC34CC4)sc12 (stereo partly drawn) [c-02-06] | 0.00213 µM | 0.194 µM
COc1c(-c2cnc(CO[C@H]3CCC[C@@H]3O)nc2)ccc2nc(NC(=O)C3CC(OC(C)(C)C)C3)sc12 (stereo partly drawn) [c-02-07] | 0.00156 µM | 0.076 µM
COc1c(-c2cnc(CO[C@H]3CCC[C@@H]3O)nc2)ccc2nc(NC(=O)[C@@H]3C[C@@H]3F)sc12 [c-02-08] | 0.00244 µM | 0.196 µM
COc1c(-c2cnc(CO[C@H]3CCC[C@@H]3O)nc2)ccc2nc(NC(=O)[C@H]3C[C@@H](N4CCN(C(=O)OC(C)(C)C)C[C@@H]4C)C3)sc12 [c-03-01, tert-Butyl (S)-4-((1s,3R)-3-((6-(2-((((1S,2S)-2-hydroxycyclopentyl)oxy)methyl)pyrimidin-5-yl)-7-methoxybenzo[d]thiazol-2-yl)carbamoyl)cyclobutyl)-3-methylpiperazine-1-carboxylate] | 0.0166 µM | 0.049 µM
COc1c(-c2cnc(CO[C@H]3CCC[C@@H]3O)nc2)ccc2nc(NC(=O)[C@H]3C[C@@H](N4CCN(C(=O)c5ccnc(C)c5)C[C@@H]4C)C3)sc12 [c-03-02, (1R,3s)-N-(6-(2-((((1S,2S)-2-Hydroxycyclopentyl)oxy)methyl)pyrimidin-5-yl)-7-methoxybenzo[d]thiazol-2-yl)-3-((S)-2-methyl-4-(2-methylisonicotinoyl)piperazin-1-yl)cyclobutane-1-carboxamide] | 0.00236 µM | 0.013 µM
COCC(=O)N1CCN([C@H]2C[C@@H](C(=O)Nc3nc4ccc(-c5cnc(CO[C@H]6CCC[C@@H]6O)nc5)c(OC)c4s3)C2)[C@@H](C)C1 [c-03-03] | 0.00254 µM | 0.23 µM
COCCOCC(=O)N1CCN([C@H]2C[C@@H](C(=O)Nc3nc4ccc(-c5cnc(CO[C@H]6CCC[C@@H]6O)nc5)c(OC)c4s3)C2)[C@@H](C)C1 [c-03-04] | 0.00269 µM | 0.32 µM
COc1c(-c2cnc(CO[C@H]3CC(F)(F)C[C@@H]3O)nc2)ccc2nc(NC(=O)C3CC3)sc12 [c-04-01, N-(6-(2-((((1S,2S)-4,4-Difluoro-2-hydroxycyclopentyl)oxy)methyl)pyrimidin-5-yl)-7-methoxybenzo[d]thiazol-2-yl)cyclopropanecarboxamide] | 0.00404 µM | 0.115 µM
CCOc1c(-c2cnc(CO[C@H]3CCC[C@@H]3O)nc2)ccc2nc(NC(=O)C3CC3)sc12 [c-04-02] | 0.00633 µM | 0.207 µM
COCCOc1c(-c2cnc(CO[C@H]3CCC[C@@H]3O)nc2)ccc2nc(NC(=O)C3CC3)sc12 [c-04-03] | 0.0124 µM | 0.184 µM
CN1CC(F)(COc2c(-c3cnc(CO[C@H]4CCC[C@@H]4O)nc3)ccc3nc(NC(=O)C4CC4)sc23)C1 [c-05-01, N-(7-((3-Fluoro-1-methylazetidin-3-yl)methoxy)-6-(2-((((1S,2S)-2-hydroxycyclopentyl)oxy)methyl)pyrimidin-5-yl)benzo[d]thiazol-2-yl)cyclopropanecarboxamide] | 0.00548 µM | 0.233 µM
O=C(Nc1nc2ccc(-c3cnc(CO[C@H]4CCC[C@@H]4O)nc3)c(OCCO)c2s1)C1CC1 [c-06-01, N-(6-(2-((((1S,2S)-2-Hydroxycyclopentyl)oxy)methyl)pyrimidin-5-yl)-7-(2-hydroxyethoxy)benzo[d]thiazol-2-yl)cyclopropanecarboxamide] | 0.00545 µM | 0.358 µM
O=C(Nc1nc2ccc(-c3cnc(CO[C@H]4CCC[C@@H]4O)nc3)c(OCc3nccs3)c2s1)C1CC1 [c-06-02] | 0.0107 µM | 0.317 µM
O=C(Nc1nc2ccc(-c3cnc(CO[C@H]4CCC[C@@H]4O)nc3)c(OC[C@H]3CCOC3)c2s1)C1CC1 [c-06-03] | 0.0171 µM | 0.277 µM
Cc1c(-c2cnc(CO[C@H]3CCC[C@@H]3O)nc2)ccc2nc(NC(=O)C3CC3)sc12 [c-07-01] | 0.00648 µM | 0.347 µM
C[C@@H]1C[C@H]1C(=O)Nc1nc2ccc(-c3cnc(CO[C@H]4CCC[C@@H]4O)nc3)cc2s1 [d-01-01, (1R,2R)—N-(6-(2-((((1S,2S)-2-Hydroxycyclopentyl)oxy)methyl)pyrimidin-5-yl)benzo[d]thiazol-2-yl)-2-methylcyclopropane-1-carboxamide] | 0.00131 µM | 0.085 µM
C[C@]1(O)C[C@@H](C(=O)Nc2nc3ccc(-c4cnc(CO[C@H]5CCC[C@@H]5O)nc4)cc3s2)C1 [d-01-02] | 0.00275 µM | 0.165 µM
CO[C@]1(C)C[C@H](C(=O)Nc2nc3ccc(-c4cnc(CO[C@H]5CCC[C@@H]5O)nc4)cc3s2)C1 [d-01-03] | 0.00216 µM | 0.175 µM
CC(C)(C)OC(=O)N1CC2(CC(C(=O)Nc3nc4ccc(-c5cnc(CO[C@H]6CCC[C@@H]6O)nc5)cc4s3)C2)C1 [d-01-04] | 0.00639 µM | 0.178 µM
O=C(Nc1nc2ccc(-c3cnc(CO[C@H]4CCC[C@@H]4O)nc3)cc2s1)C1CC2(CCOCC2)C1 [d-01-05] | 0.00207 µM | 0.101 µM

Compound | IC50 [1] | IC50 [2]
O=C(Nc1nc2ccc(-c3cnc(CO[C@H]4CCC[C@@H]4O)nc3)cc2s1)C1CC2(C1)CC(F)(F)C2 [d-01-06] | 0.00362 µM | 0.174 µM
O=C(Nc1nc2ccc(-c3cnc(CO[C@H]4CCC[C@@H]4O)nc3)cc2s1)C1CC2(COC2)C1 [d-01-07] | 0.00175 µM | 0.184 µM
C[C@]1(F)C[C@H](C(=O)Nc2nc3ccc(-c4cnc(CO[C@H]5CCC[C@@H]5O)nc4)cc3s2)C1 [d-01-08] | 0.00289 µM | 0.202 µM
CC(C)(C)O[C@H]1C[C@@H](C(=O)Nc2nc3ccc(-c4cnc(CO[C@H]5CCC[C@@H]5O)nc4)cc3s2)C1 [d-02-01, (1s,3s)-3-(tert-Butoxy)-N-(6-(2-((((1S,2S)-2-hydroxycyclopentyl)oxy)methyl)pyrimidin-5-yl)benzo[d]thiazol-2-yl)cyclobutane-1-carboxamide] | 0.00183 µM | 0.077 µM
CC(=O)N1CCC2(CC1)CC(C(=O)Nc1nc3ccc(-c4cnc(CO[C@H]5CCC[C@@H]5O)nc4)cc3s1)C2 [d-03-01, 7-Acetyl-N-(6-(2-((((1S,2S)-2-hydroxycyclopentyl)oxy)methyl)pyrimidin-5-yl)benzo[d]thiazol-2-yl)-7-azaspiro[3,5]nonane-2-carboxamide] | 0.00138 µM | 0.067 µM
CC(C)C(=O)N1CCC2(CC1)CC(C(=O)Nc1nc3ccc(-c4cnc(CO[C@H]5CCC[C@@H]5O)nc4)cc3s1)C2 [d-03-05] | 0.00252 µM | 0.093 µM
O=C(Nc1nc2ccc(-c3cnc(CO[C@H]4CCC[C@@H]4O)nc3)cc2s1)C1CC2(CCN(C(=O)c3ccccn3)CC2)C1 [d-03-06] | 0.000849 µM | 0.125 µM
O=C(Nc1nc2ccc(-c3cnc(CO[C@H]4CCC[C@@H]4O)nc3)cc2s1)C1CC2(CCN(C(=O)c3cccnc3)CC2)C1 [d-03-07] | 0.000852 µM | 0.139 µM
O=C(Nc1nc2ccc(-c3cnc(CO[C@H]4CCC[C@@H]4O)nc3)cc2s1)C1CC2(CCN(CC(F)(F)F)CC2)C1 [d-03-08] | 0.00128 µM | 0.137 µM
O=C(Nc1nc2ccc(-c3cnc(CO[C@H]4CCC[C@@H]4O)nc3)cc2s1)C1CC2(CCN(C(=O)C3COC3)CC2)C1 [d-03-09] | 0.00147 µM | 0.158 µM
CCO[C@H]1C[C@@H](C(=O)Nc2nc3ccc(-c4cnc(CO[C@H]5CCC[C@@H]5O)nc4)cc3s2)C1 [d-04-01, (1s,3s)-3-Ethoxy-N-(6-(2-((((1S,2S)-2-hydroxycyclopentyl)oxy)methyl)pyrimidin-5-yl)benzo[d]thiazol-2-yl)cyclobutane-1-carboxamide] | 0.0021 µM | 0.182 µM
COCCO[C@H]1C[C@@H](C(=O)Nc2nc3ccc(-c4cnc(CO[C@H]5CCC[C@@H]5O)nc4)cc3s2)C1 [d-04-02] | 0.00248 µM | 0.207 µM
CCCO[C@H]1C[C@@H](C(=O)Nc2nc3ccc(-c4cnc(CO[C@H]5CCC[C@@H]5O)nc4)cc3s2)C1 [d-04-03] | 0.00222 µM | 0.162 µM
O=C(Nc1nc2ccc(-c3cnc(CO[C@H]4CCC[C@@H]4O)nc3)cc2s1)[C@H]1C[C@@H](OCc2ccncc2)C1 [d-04-05] | 0.00205 µM | 0.145 µM
CN(C)CC1CC(C(=O)Nc2nc3ccc(-c4cnc(CO[C@H]5CCC[C@@H]5O)nc4)cc3s2)C1 (stereo partly drawn) [d-05-01, 3-((Dimethylamino)methyl)-N-(6-(2-((((1S,2S)-2-hydroxycyclopentyl)oxy)methyl)pyrimidin-5-yl)benzo[d]thiazol-2-yl)cyclobutane-1-carboxamide] | 0.00151 µM | 0.182 µM
O=C(Nc1nc2ccc(-c3cnc(CO[C@H]4CCC[C@@H]4O)nc3)cc2s1)C1CC(CN2CC(F)C2)C1 (stereo partly drawn) [d-05-02] | 0.0021 µM | 0.223 µM
O=C(Nc1cc2cc(-c3cnc(CO[C@H]4CCC[C@@H]4O)nc3)ccn2n1)C1CC1 [e-01-01, N-(5-(2-((((1S,2S)-2-hydroxycyclopentyl)oxy)methyl)pyrimidin-5-yl)pyrazolo[1,5-a]pyridin-2-yl)cyclopropanecarboxamide] | 0.00289 µM | 0.279 µM
O=C(Nc1cc2cc(-c3cnc(CO[C@H]4CCC[C@@H]4O)nc3)ccn2n1)[C@@H]1C[C@H]1F [e-01-02] | 0.00248 µM | 0.225 µM
C[C@@H]1C[C@H]1C(=O)Nc1cc2cc(-c3cnc(CO[C@H]4CCC[C@@H]4O)nc3)ccn2n1 [e-01-03] | 0.00103 µM | 0.171 µM
